According to PMC8518382, “Identification of a Bromodomain‐like Region in 15‐Lipoxygenase‐1 Explains Its Nuclear Localization” (Angewandte Chemie (International Ed. in English), 2021):

What was measured:
12-LOX = molecular target: T1, 12-LOX (Homo sapiens, UniProt P18054); assay: Sandwich ELISA of Labelox B biotinylation in A549 cell lysate, 12-LOX capture; assay type: biochemical; conditions: HRP-streptavidin detection, read-out: EC50 of labeling
T1 construct: the endogenous LOXs were captured on an anti‐LOX antibody precoated 96‐well plate; endogenous in cells; host or cells: A549 cell lysate
T1 sequence (P18054 1-663): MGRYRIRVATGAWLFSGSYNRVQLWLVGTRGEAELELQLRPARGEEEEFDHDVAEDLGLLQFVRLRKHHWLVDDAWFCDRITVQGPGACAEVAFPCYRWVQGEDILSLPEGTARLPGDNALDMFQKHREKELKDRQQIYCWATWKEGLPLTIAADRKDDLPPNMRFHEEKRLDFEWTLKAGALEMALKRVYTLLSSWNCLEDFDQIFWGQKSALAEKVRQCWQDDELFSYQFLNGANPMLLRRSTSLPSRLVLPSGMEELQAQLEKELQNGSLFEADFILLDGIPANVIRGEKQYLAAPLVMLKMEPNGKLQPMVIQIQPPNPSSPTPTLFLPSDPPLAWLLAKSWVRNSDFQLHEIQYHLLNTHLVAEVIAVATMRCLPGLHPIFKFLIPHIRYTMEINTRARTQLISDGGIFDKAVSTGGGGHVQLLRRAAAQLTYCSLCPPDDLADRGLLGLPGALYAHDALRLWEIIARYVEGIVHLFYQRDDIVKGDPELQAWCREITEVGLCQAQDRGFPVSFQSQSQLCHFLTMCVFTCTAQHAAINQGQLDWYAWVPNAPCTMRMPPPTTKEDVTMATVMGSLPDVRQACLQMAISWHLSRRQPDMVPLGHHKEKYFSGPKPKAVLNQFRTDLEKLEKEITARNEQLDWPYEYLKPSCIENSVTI
Protocol: (§1) Labelox B efficiently labels endogenous LOXs. Lipoxygenase labeling by Labelox B was investigated using cell‐based assays. As a first step, labeling efficiency was estimated in intact RAW 264.7 macrophage cells that were treated with Labelox B in concentrations ranging between 1 μM and 100 μM with incubation times between 0.5 h and 6 h. […] As a next step, a sandwich ELISA assay was established in order to find proof that probe Labelox B is indeed labeling proteins with lipoxygenase enzyme activity. Towards this aim, A549 cell lysates were treated with sub‐micromolar to micromolar concentrations of Labelox B. Subsequently, the endogenous LOXs were captured on an anti‐LOX antibody precoated 96‐well plate followed by detection of Labelox B mediated biotinylation using HRP‐conjugated streptavidin. […] Furthermore, probe Labelox B enabled visualization of localized LOX activity in living cells (Figure 2 c). […] The fluorescence intensity increased with increasing doses of Labelox B and labeling was observed throughout the cells in the cytoplasm and the nucleus of A549.
(§2) Figure 2 Labelox B labels endogenous LOXs in a dose‐ and time‐dependent manner. a, b) Western blot analysis of Labelox B labeled LOXs in intact RAW 264.7 for indicated doses and time points. […] The pictures were captured by a Leica DM4000b fluorescence microscope.

15-LOX-2 = molecular target: T2, 15-LOX-2 (Homo sapiens, UniProt O15296); assay: Sandwich ELISA of Labelox B biotinylation in A549 cell lysate, 15-LOX-2 capture; assay type: biochemical; conditions: HRP-streptavidin detection, read-out: EC50 of labeling
T2 construct: endogenous in cells; host or cells: A549 cell lysate
T2 sequence (O15296 1-676): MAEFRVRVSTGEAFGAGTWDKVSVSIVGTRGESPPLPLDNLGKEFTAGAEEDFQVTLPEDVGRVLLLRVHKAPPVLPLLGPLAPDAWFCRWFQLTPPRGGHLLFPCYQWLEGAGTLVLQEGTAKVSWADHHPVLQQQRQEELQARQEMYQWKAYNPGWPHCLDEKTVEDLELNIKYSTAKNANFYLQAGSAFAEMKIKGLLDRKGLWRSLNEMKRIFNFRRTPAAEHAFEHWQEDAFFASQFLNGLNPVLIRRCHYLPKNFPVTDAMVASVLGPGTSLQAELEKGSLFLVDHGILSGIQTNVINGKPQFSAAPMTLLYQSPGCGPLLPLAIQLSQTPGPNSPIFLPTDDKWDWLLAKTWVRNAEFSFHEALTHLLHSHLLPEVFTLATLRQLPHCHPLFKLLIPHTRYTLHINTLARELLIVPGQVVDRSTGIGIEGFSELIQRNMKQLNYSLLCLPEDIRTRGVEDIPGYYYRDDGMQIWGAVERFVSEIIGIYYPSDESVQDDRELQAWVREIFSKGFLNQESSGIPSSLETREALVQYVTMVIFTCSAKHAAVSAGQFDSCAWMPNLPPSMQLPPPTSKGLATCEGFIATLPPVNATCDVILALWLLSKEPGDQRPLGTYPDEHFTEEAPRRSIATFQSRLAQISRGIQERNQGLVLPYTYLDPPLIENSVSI
Protocol: as §1, §2

[1] = test system: endogenous LOXs in intact RAW 264.7 macrophage cells; assay: Western blot of Labelox B labeling in intact RAW 264.7 macrophage cells; assay type: cell-based
Excerpt: described in the IC50 determination assay. Michaelis-Menten plots, Lineweaver-Burk plots, Km, and Vmax, are generated using GraphPad Prism 8.3.0.
1.5. Kits-Wilson kinetic analysis […]
enzyme to get a reversible complex, E*I. The dissociation constant of inhibitor (Ki) is from the formation […]
E-I. The inactivation rate constant (ki) is to describe the rate of E-I generation. To determine these inactivation parameters, Kitz-Wilson analysis was employed. The procedure has been detailed previously […]
1.6. Immunoblotting Analysis
Raw 264.7 cells were seeded in a 6-well plate at a density of 5x10^5 cells per well in high glucose DMEM media supplemented with 1% penicillin/streptomycin, 10% fetal bovine serum (FBS) (Costar Europe, Badhoevedrop, The Netherlands) at 37°C and cultured overnight. Afterward, cells were treated with the desired concentration of Labelox B at the expected time. Then, the cells were harvested and lysed with RIPA buffer containing 1X PIC. […]
Later, 30 μl of each sample was used for immunoblotting analysis. […] After washing, the blotting bands were detected with enhanced chemiluminescence (ECL) solution (GE Healthcare, Amersham, UK). […]
A549 cells were lysed by RIPA buffer supplemented with 1x PIC. After sonication and centrifugation, the supernatant was collected, and the protein concentration was determined by a Pierce BCA Protein Assay Kit (Thermo Fisher Scientific, USA). […]

- EC50 (12-LOX): ~3.5 µM
- EC50 (15-LOX-2): ~3.5 µM
- Cell permeability ([1]; labels effectively in half an hour at 25 μM): sufficiently cell‐permeable
Compound: CCCCCC#CCC#CCOC(=O)CCCC[C@@H]1SC[C@@H]2NC(=O)N[C@@H]21 [Labelox B (3)]
- Labeling of proteins with the size of endogenous LOXs ([1]; 1 μM to 100 μM, 0.5 h to 6 h): dose and time‐dependent manner
